The record followed here is the METLIN SMRT retention time set (Domingo-Almenara et al. 2019).

A short description of the data set: gradient 5% acetonitrile 3 min, to 50% in 2 min, to 85% in 15 min, held 3 min, 100 µL/min. Conditions: column: Zorbax Extend-C18 2.1 x 50 mm; eluents: water / acetonitrile, 0.1% formic acid. An outline of the steps:
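Each retention time is based on an adduct peak selected computationally and verified by manual inspection. Measurements used HPLC–quadrupole time-of-flight mass spectrometry in positive and negative ionization mode on mixtures of ~100 pure standards. Chromatography ran on a Zorbax Extend-C18 column (2.1 × 50 mm, 1.8 μm) at 100 μL/min with water and acetonitrile, each containing 0.1% formic acid, and dead and dwell volumes of 40 μL and 900 μL.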
`O=c1ccc(-c2ccccc2)nn1CCc1nc(-c2ccccc2Br)no1` returned an RP-LC retention time of 965 s.

Take `O=C(Cc1c[nH]c2ncccc12)NCC1CCCCC1`: the RP-LC retention time amounted to 644 s.

In the case of `Cc1ccc2cc(CCC(=O)NCCCN3CCc4ccccc4C3)c(=O)[nH]c2c1`, the RP-LC retention time stood at 614 s.

For the compound `Cc1ccc(C)c(NC(=O)c2csc(-c3cn(C)c4ncccc34)n2)c1`, the RP-LC retention time was 1110 s.

`Cn1c(N2CCN(C(=O)Cc3ccc(Cl)cc3)CC2)cc(=O)n(C)c1=O` had an RP-LC retention time of 677 s.

Regarding `COc1ccc(C(O)CN2CCN(c3ccccc3C)CC2)cc1` (stereo not given), the RP-LC retention time was 686 s.

As for `Cc1ccnc(NS(=O)(=O)c2ccc(NC(=O)c3cn(C)nc3C)cc2)n1`, the RP-LC retention time is 589 s.

Compound `CCc1ccccc1NS(=O)(=O)c1cc(-c2c(CC)noc2NC(C)=O)ccc1C` showed an RP-LC retention time of 855 s.

The compound `Cc1ccc(-c2noc(Cc3nnc(-c4ccc(C)cc4)o3)n2)cc1` had an RP-LC retention time of 1120 s.

`COc1cccc(S(=O)(=O)N2CCC(CN3CCCCCC3)CC2)c1` came in with an RP-LC retention time of 642 s.

As for `CCOc1cccc(CNC(=O)c2sc3ncccc3c2-n2cccc2)c1`, the RP-LC retention time was 1050 s.

In turn, `CCOc1ccccc1-c1noc(Cn2c(=O)n(-c3cccc(F)c3)c(=O)c3sccc32)n1` had an RP-LC retention time of 967 s.

As for `COc1cc(NC(=O)N2CCCC2c2ccccc2C)cc(OC)c1OC` (stereo not given), the RP-LC retention time amounted to 865 s.

Take `Cc1[nH]nc(-c2cc(S(=O)(=O)NCCc3ccc(S(N)(=O)=O)cc3)c(C)s2)c1C`: the RP-LC retention time was found to be 699 s.

`Cn1nc(N)c2ncc(C(Cl)(Cl)Cl)nc21` showed an RP-LC retention time of 876 s.

`Cn1cc(C(=O)NCCN2CCCCC2)c(S(=O)(=O)N2CCN(c3ccc(Cl)cc3)CC2)n1` had an RP-LC retention time of 728 s.

Take `Cn1c(=O)c(NCCCN2CCCc3ccccc32)nc2ccncc21`: the RP-LC retention time amounted to 665 s.

`CCN(CC)c1ncnc2c1cnn2CC(=O)N1CCN(c2ccccn2)CC1` registered an RP-LC retention time of 549 s.

With `Cc1nc([N+](=O)[O-])c(N2CCCC2)n1Cc1ccccc1`, the RP-LC retention time is 817 s.

Turning to `O=C(Nc1ccc2c(c1)OCCO2)N1CCC(n2c(-c3ccoc3)nc3cccnc32)C1` (stereo not given), the RP-LC retention time stood at 648 s.

In turn, `CC(C)N1C(=O)c2cccnc2Sc2cc(NC(=O)CCc3ccccc3)ccc21` yielded an RP-LC retention time of 922 s.

The compound `Cc1cc(C(=O)Nc2cc(-c3ccco3)nn2CCO)no1` had an RP-LC retention time of 725 s.

On to `CN1C(=O)c2cccnc2Sc2cc(NC(=O)C3CCCC3)ccc21`, for which the RP-LC retention time is 749 s.

In turn, `O=C(NCCCN1CCCC1)c1ccc(CS(=O)Cc2ccccc2Cl)o1` (stereo not given) displayed an RP-LC retention time of 548 s.

On to `CC1CCN(c2ccc(-c3noc(CCC(=O)N4CCN(C5CCCCC5)CC4)n3)cc2)CC1`, for which the RP-LC retention time turned out to be 733 s.

Turning to `CCc1nc2onc(C)c2c(=O)n1CC(=O)NC1CCCc2ccccc21` (stereo not given), the RP-LC retention time turned out to be 892 s.

Take `CC(C(=O)N1CCC(c2cc(N)on2)CC1)c1ccccc1` (stereo not given): the RP-LC retention time was 722 s.

In turn, `Cc1ccc2c(c1)C1CC(C)(O2)N(c2cccc(C(=O)N3CCN(c4ccccn4)CC3)c2)C(=O)N1` (stereo not given) displayed an RP-LC retention time of 625 s.

`Cc1c(Cl)cccc1Nc1c(-c2ccc(C(=O)O)cc2)nc2cnccn12` gave an RP-LC retention time of 796 s.

Take `Cc1noc2nc(C)n(CC(=O)Nc3cccc4c3CCCC4)c(=O)c12`: the RP-LC retention time worked out at 871 s.

`COc1ccc(N2CCN(S(=O)(=O)c3cc(-c4cc(C(F)(F)F)[nH]n4)sc3C)CC2)cc1`: the RP-LC retention time was 1090 s.

For the compound `CCS(=O)(=O)N1CC(=O)N(c2cccc(C)c2C)C(C)(C(=O)NCc2ccc(F)cc2)C1` (stereo not given), the RP-LC retention time was found to be 848 s.

For `COc1ccc(Br)cc1C1C(C(=O)N2CCOCC2)=C(C)NC2=C1C(=O)CC(C)(C)C2` (stereo not given), the RP-LC retention time is 683 s.

The compound `Cc1ccc(-c2cc3c(N4CCCC(C(=O)NCC5CC5)C4)nccn3n2)c(C)c1` (stereo not given) gave an RP-LC retention time of 863 s.

Compound `O=C(COc1ccc(F)cc1)N1CC(n2cc(COCC3CC3)nn2)C1` returned an RP-LC retention time of 736 s.

Take `CCOC(=O)c1nc(NCCCN2CCN(Cc3ccccc3)CC2)c2ccccc2n1`: the RP-LC retention time was 588 s.

Regarding `O=C(Cn1c(=O)c2cccn2c2ccccc21)NCCN1CCOCC1`, the RP-LC retention time is 592 s.

The compound `CCC(C)NC(=O)c1ccc(Cn2nc(C)c(S(=O)(=O)N3CCCCC3)c2C)cc1` (stereo not given) displayed an RP-LC retention time of 874 s.

As to `CC1CN(c2nc(Nc3ccc(Cl)cc3)c3cnn(C)c3n2)CC(C)O1` (stereo not given), the RP-LC retention time turned out to be 1040 s.

`Cc1cc(C)cc(C(=O)N2CCCC(C(=O)NCCc3cccs3)C2)c1` (stereo not given): the RP-LC retention time was 850 s.

On to `CCOc1ccc(N2C=C(C(=O)N3CCOCC3)S(=O)(=O)c3ccc(Cl)cc32)cc1`, for which the RP-LC retention time was found to be 893 s.

Regarding `COc1ccc(C(=O)NCc2ccc3c(c2)ncn3C(C)C)cc1F`, the RP-LC retention time came to 632 s.

Compound `CC(=O)N1CCN(Cc2nc(-c3ccc(N4CCSCC4)nc3)no2)CC1` gave an RP-LC retention time of 669 s.

`Cc1ccnc(N2CCCC(C(=O)NCC3CCN(Cc4ccccc4C)CC3)C2)n1` (stereo not given) displayed an RP-LC retention time of 596 s.

As to `Cc1nc(-c2ccc(-c3noc(-c4ccncc4)n3)cc2)cs1`, the RP-LC retention time is 1050 s.

In turn, `Cc1ccc(-c2nc3cnccn3c2NCCC(=O)NCc2ccco2)cc1` gave an RP-LC retention time of 684 s.

`Cc1nn(C)cc1CN1CC(F)(F)C[C@H]1c1nnc(-c2ccccc2)o1` registered an RP-LC retention time of 784 s.

In turn, `Cn1nc(C(=O)NCc2cccs2)ccc1=O` gave an RP-LC retention time of 632 s.

For `Cc1cc(N2CCN(C)CC2)nc2ccc(NC(=O)Nc3cccc(Cl)c3)cc12`, the RP-LC retention time was 590 s.

`CCCNC(=O)C1CCCN1C(=O)c1ccc(NC(=O)C(C)(C)C)cc1` (stereo not given): the RP-LC retention time was 683 s.

`Cc1ccc2[nH]cc(NC(=O)NCCN(C)C)c(=O)c2c1` returned an RP-LC retention time of 563 s.

`COc1cccc(N2CCN(c3ccnc(SCC(=O)NCc4ccccc4Cl)n3)CC2)c1`: the RP-LC retention time is 788 s.

In turn, `Cc1cc(C)c(NC(=O)CSc2nccc(N3CCN(c4cc(C)ccc4C)CC3)n2)c(C)c1` registered an RP-LC retention time of 1080 s.

In the case of `Cc1ccc(-n2nc3c(=O)n(CCCC(=O)NC4CCCC4)nc(C)c3c2C)cc1`, the RP-LC retention time is 797 s.

Turning to `COCCc1noc(C2Cc3ccccc3N2C(=O)NCC(=O)OC)n1` (stereo not given), the RP-LC retention time worked out at 720 s.

In turn, `Cc1csc(-c2ccc(N3CCN(C(=O)c4ccc5ccccc5n4)CC3)nc2)n1` returned an RP-LC retention time of 833 s.

In turn, `O=C(CN1c2ccc(F)cc2-c2ccccc2S1(=O)=O)Nc1cccc(F)c1` registered an RP-LC retention time of 982 s.

The compound `NC(=O)CSc1ccc(-c2ccccn2)nn1` came in with an RP-LC retention time of 554 s.

On to `Cc1ccc(C2=NC3(CCN(C(=O)c4c[nH]c5ccccc45)CC3)ON2)cc1`, for which the RP-LC retention time was 769 s.

The compound `Cc1ccc(C(C)NC(=O)C2CCCN(c3nc4c(s3)c(C)nn4-c3ccc(F)cc3)C2)cc1` (stereo not given) registered an RP-LC retention time of 1230 s.

Consider `CCNC(=O)C1CCCN(c2nc3ncn(CC(=O)Nc4ccc(C)cc4C)c(=O)c3s2)C1` (stereo not given), for which the RP-LC retention time worked out at 711 s.

Consider `CCOC(=O)CNC(=O)N1CCC(n2c(-c3ccc(F)cc3)nc3cccnc32)C1` (stereo not given), for which the RP-LC retention time stood at 641 s.

Compound `CCn1cnc2cc(-c3noc(C4CC(=O)N(c5cccc(Cl)c5)C4)n3)ccc21` (stereo not given) had an RP-LC retention time of 731 s.

`Cc1ccc(-c2noc(C3CCCN3S(=O)(=O)c3c(C)cc(C)cc3C)n2)cc1` (stereo not given) displayed an RP-LC retention time of 1330 s.

`O=C1/C(=C/c2ccccc2)C[C@@]2(O)[C@H]3Cc4ccc(O)c5c4[C@@]2(CCN3CC2CC2)[C@H]1O5` displayed an RP-LC retention time of 724 s.

As to `CN1C(=O)c2cc(S(=O)(=O)Nc3ccc4c(c3)OCO4)ccc2Oc2cccnc21`, the RP-LC retention time turned out to be 850 s.

`CCS(=O)(=O)N1CCc2c(c(CN(C(=O)c3ccccc3F)c3ccccc3)nn2C)C1` registered an RP-LC retention time of 774 s.

In the case of `CC(C)c1c(C2CCN(C(=O)c3cccc(Br)c3)CC2)noc1N`, the RP-LC retention time amounted to 834 s.

`CCCC(=O)Nc1ccc2c(c1)CN(C(=O)c1c(F)cccc1Cl)C(C(=O)N(C)C)C2` (stereo not given) displayed an RP-LC retention time of 727 s.

For the compound `Cc1nccn1C1CN(S(=O)(=O)c2cccc3cccnc23)C1`, the RP-LC retention time was 571 s.

In the case of `CCNC(=O)c1ccc(-n2nc(C)c(C)c2C)nc1`, the RP-LC retention time was found to be 758 s.

`CNC(=O)C1CN(C(=O)Cc2ccc(C)cc2)CC12CCCC2` (stereo not given) displayed an RP-LC retention time of 722 s.

`Cc1ccc(N(C)S(=O)(=O)c2cc3n(c2)CCCN(C(C)C)C3=O)cc1` registered an RP-LC retention time of 865 s.

`Nc1cc(C2CCN(C(=O)c3cncc(Br)c3)CC2)no1` displayed an RP-LC retention time of 620 s.

In turn, `CC(C)C(=O)NCc1csc(C2CCN(C(=O)C3CCC3)CC2)n1` showed an RP-LC retention time of 876 s.

`O=C(NCCCN1CCOCC1)c1cc2occc2c(Nc2ccccc2)n1` registered an RP-LC retention time of 644 s.

Take `Cc1ccc2nc(C(=O)NCc3ccc4c(c3)OCO4)cn2c1`: the RP-LC retention time came out at 628 s.

Compound `Cc1ccccc1C(=O)NCc1ccc2c(c1)ncn2C` came in with an RP-LC retention time of 576 s.

Compound `O=C(Cc1ccc(F)cc1)NC(c1ccccc1)c1nnc(N2CCCC2)o1` (stereo not given) showed an RP-LC retention time of 780 s.

`COc1ccc(Cl)cc1NC(=O)N1CCCC(Cn2cnc3cccnc32)C1` (stereo not given) registered an RP-LC retention time of 761 s.
